“Also recorded” adds a separate entry of the source.
Assays:
Z99-541 cells = assay: Reversion of transformed phenotype, gp140^trk + NGF transformed NIH3T3 cells; format: cell-based
[1] = Morphology and toxicity, v-src-transformed NIH3T3 cells; format: cell-based; settings: mouse, v-src transformed nih3t3 cells; v-src transformed cells, no signs of morphologic reversion; data not shown; read-out: concentration at which toxic effect appears
C74-321 cells = assay: as above; format: cell-based
gp145^trkB = assay: BDNF-induced tyrosine phosphorylation of gp145^trkB in Z52-17 cells (Western blot); format: cell-based; settings: 100 nM K252a, 100 ng/ml BDNF
gp140^trk = format: cell-based, rat; settings: 100 nM K252a, 100 ng/ml NGF, PC12 cells
PC12 cells [2] = assay: Proliferation of PC12 cells; format: cell-based, rat; settings: submicromolar concentrations; data not shown
PDGF receptor = assay: PDGF-induced tyrosine phosphorylation of PDGF receptor in NIH3T3 cells (Western blot); format: cell-based; settings: 100 nM K252a, 100 ng/ml PDGF
human EGF receptor = assay: EGF-induced tyrosine phosphorylation of EGF receptor in F19-91 cells (Western blot); format: cell-based; settings: 100 nM K252a, 100 ng/ml EGF
pp60^v-src [3] = assay: In vitro tyrosine protein kinase assay of pp60^v-src immunoprecipitates (C74-321 cells); format: biochemical; settings: concentrations as high as 10 μM
NIH3T3 cells = assay: Toxicity and growth of untransfected NIH3T3 and NIH3T3-derived cells
PC12 cells [4] = assay: FGF-induced neurite formation of PC12 cells; format: cell-based, rat; settings: concentrations as high as 300 nM; 50 ng/ml acidic and basic FGFs, three days
106-632 cells = assay: Reversion of morphologic transformation, trk-transformed NIH3T3 cells; format: cell-based; settings: 100 nM K252a, as little as 36 hours
pp60^v-src [5] = assay: Tyrosine phosphorylation of pp60^v-src in C74-321 cells (Western blot); format: cell-based; settings: concentrations as high as 1 μM
Z82-711 cells = assay: Reversion of transformed phenotype, gp145^trkC + NT-3 transformed NIH3T3 cells; format: cell-based
[6] = test system: NIH3T3 cells co-transfected with pFRK44 (gp145^trkB) and pLL42 (BDNF); assay: Focus formation of NIH3T3 cells co-transfected with gp145^trkB and BDNF plasmids; format: cell-based; settings: 100 nM K252a
PC12 cells [7] = assay: NGF-induced neuronal differentiation (neurite outgrowth) of PC12 cells; format: cell-based; settings: Rattus norvegicus, PC-12, 72 h; 50 ng/ml NGF, three days; read-out: IC50, block of appearance of neuritic processes in PC12 cells exposed to NGF
[8] = Morphology and toxicity, v-fms-transformed NIH3T3 cells; format: cell-based; settings: mouse, v-fms transformed nih3t3 cells; v-fms transformed cells, no signs of morphologic reversion; data not shown; read-out: concentration at which toxic effect appears
C51-642 cells = assay: as above; format: cell-based
[9] = test system: NIH3T3 cells co-transfected with pDM69 (gp140^trk) and pLTRSNGF (NGF); assay: Focus formation of NIH3T3 cells co-transfected with gp140^trk and NGF plasmids; format: cell-based; settings: 100 nM K252a
[10] = test system: NIH3T3 cells co-transfected with pFL20 (gp145^trkC) and pLL43 (NT-3); assay: Focus formation of NIH3T3 cells co-transfected with gp145^trkC and NT-3 plasmids; format: cell-based; settings: 100 nM K252a; pFL20 (gp145^trkC) + pLL43 (NT-3)
B38-941 cells = assay: Reversion of morphologic transformation, trk5-transformed NIH3T3 cells; format: cell-based; settings: 100 nM K252a, as little as 36 hours
Z82-432 cells = assay: Reversion of transformed phenotype, gp145^trkB + BDNF transformed NIH3T3 cells; format: cell-based
gp145^trkC = assay: NT-3-induced tyrosine phosphorylation of gp145^trkC in R4-31 cells (Western blot); format: cell-based; settings: 100 nM K252a, 100 ng/ml NT-3, R4-31 (RA-31) cells

Structure (SMILES): COC(=O)[C@@]1(O)C[C@H]2O[C@]1(C)n1c3ccccc3c3c4c(c5c6ccccc6n2c5c31)C(=O)NC4 (single isomer, unassigned) [K252a, (8R*,9S*,11S*)-(-)-9-hydroxy-9-methoxycarbonyl-8-methyl-2,3,9,10-tetrahydro-8,11-epoxy-1H,8H,11H-2,7b,11a-triazadibenzo(a,g) cycloocta(c,d,e)triinden-1-one]
- reversion of transformed phenotype (Z99-541 cells; 30 nM K252a, data not shown): much more limited effect
- reversion of transformed phenotype (Z99-541 cells; 100 nM K252a, 2 to 4 days): completely reverted
- MCC [1]: ~1000 nM
- effect on morphology of v-src transformed cells (C74-321 cells): no effect
- effect on transformed phenotype of v-src cells (C74-321 cells; concentrations as high as 1 μM): no effect
- phosphorylation on tyrosine residues of ligand-activated gp145^trkB (gp145^trkB): completely abolished
- NGF-induced phosphorylation of gp140^trk on tyrosine residues (gp140^trk): completely abolished
- inhibitory effect on proliferation of PC12 cells (PC12 cells [2]): did not have a significant inhibitory effect
- phosphorylation on tyrosine residues of the PDGF receptor (PDGF receptor): no effect
- phosphorylation on tyrosine residues of the EGF receptor (human EGF receptor): no effect
- inhibitory effect on catalytic activity of pp60^v-src (pp60^v-src [3]): did not have any significant inhibitory effect
- effect on growth properties / proliferation rate of the cells (NIH3T3 cells; 300 nM or lower): not observed; also recorded: no significant effect
- detectable toxic effects (NIH3T3 cells; concentrations as high as 300 nM, NIH3T3-derived cells): nor elicit any detectable toxic effects
- toxicity to cells (NIH3T3 cells; micromolar concentrations, particularly untransfected NIH3T3 cells, data not shown): considerably toxic
- effect on induction of neurite formation by FGF (PC12 cells [4]): no detectable effect
- reversion of transformed phenotype (106-632 cells): completely reverted
- inhibitory effect on levels of tyrosine phosphorylation of pp60^v-src (pp60^v-src [5]): did not have any inhibitory effect
- reversion of transformed phenotype (Z82-711 cells; 30 nM K252a, data not shown): much more limited effect
- reversion of transformed phenotype (Z82-711 cells; 100 nM K252a, 2 to 4 days): completely reverted
- Transforming Activity [6]: 0 Foci per 10^5 cells
- IC50 (PC12 cells [7]): ~0.04 µM
- MCC [8]: ~1000 nM
- effect on morphology of v-fms transformed cells (C51-642 cells): no effect
- effect on transformed phenotype of v-fms cells (C51-642 cells; concentrations as high as 1 μM): no effect
- Transforming Activity [9]: 0 Foci per 10^5 cells
- Transforming Activity [10]: 0 Foci per 10^5 cells
- reversion of transformed phenotype (B38-941 cells): completely reverted
- reversion of transformed phenotype (Z82-432 cells; 30 nM K252a, data not shown): much more limited effect
- reversion of transformed phenotype (Z82-432 cells; 100 nM K252a, 2 to 4 days): completely reverted
- phosphorylation on tyrosine residues of ligand-activated gp145^trkC (gp145^trkC): completely abolished

— patent US6271242A, “Method for treating cancer using a tyrosine protein kinase inhibitor” (Bristol-Myers Squibb Co., priority 1992, dated 2001)
